Here are results for one compound from article PMC11627468, “Novel enzyme‐resistant pancreatic polypeptide analogs evoke pancreatic beta‐cell rest, enhance islet cell turnover, and inhibit food intake in mice” (Biofactors (Oxford, England), 2024).

In data set [1] the target is T1, purified human DPP‐4 enzyme (Homo sapiens, UniProt P27487).
T1 construct: purchased Sigma-Aldrich
Briefly: In vitro DPP‐4 degradation. Format: in vitro ADME. As to the method:
PP peptides (50 μg) were incubated at 37°C for 0–8 h with 5 μL of purified human DPP‐4 enzyme (0.01 U/L, Sigma‐Aldrich, Gillingham, UK). Degradation reactions were terminated via the addition of 10 μL 10% (v/v) trifluoroacetic acid/water solution. Reaction mixes were separated by reverse phase rp‐HPLC using a Phenomenex C‐18 analytical column (250 × 4.6 mm^2) with UV absorbance detection at 214 nm (ThermoQuest SpectraSystem UV2000 detector). HPLC peaks of interest were collected and analyzed by MALDI‐TOF MS on a Perseptive Biosystems Voyager‐DE Biospectrometry (Hertfordshire, UK).

For data set [2], the system named is BRIN‐BD11 beta‐cells. Nature of the data set: In vitro insulin secretion from BRIN‐BD11 beta‐cells. To be noted: 20 min, insulin radioimmunoassay, n = 8. The format is cell-based. As to the method: Effects of the PP and related peptides on insulin secretion were examined in pancreatic BRIN‐BD11 beta‐cells. The secretory characteristics of this cell line have been described in detail previously.[22] Cells were cultured in RPMI 1640 media (Gibco Life Technologies Ltd), with a glucose concentration of 11.1 mM and supplemented with 10% v/v fetal bovine serum (Gibco), 1% v/v antibiotics (0.1 mg/mL streptomycin and 100 U/mL penicillin) at 37°C in 5% atmospheric CO2. For experimentation, cells were seeded into 24‐well plates (Falcon Ltd) at a density of 150,000 cells per well. Following overnight attachment, media was aspirated, and cells were preincubated in 1.1 mM glucose KRB buffer for 40 min. Following preincubation, the 1.1 mM glucose solution was removed and 1 mL of KRB test solution, containing 16.7 mM glucose with PP peptides (10^−12 to 10^−6 M) was added for 20 min. In a separate series, PP peptides were also incubated in the presence of alanine (10 mM) at 16.7 mM glucose to further investigate the effects on insulin secretion. For all experiments, following a 20 min incubation period, the supernatant was collected and stored at −20°C until insulin concentration determination using a dextran‐coated charcoal insulin radioimmunoassay.[23]

Data set [3] concerns BRIN‐BD11 beta‐cells. Nature of the data set: Beta‐cell proliferation (Ki‐67 staining). The format is cell-based. As to conditions: peptide 10^−6 M, versus control cultures, n = 3. As to the method:
To assess the effects of PP and related peptides (10^−8 and 10^−6 M) on beta‐cell proliferation and apoptosis, BRIN‐BD11 beta‐cells were seeded onto sterilized, clear‐glass coverslips (16 mm diameter) and placed in 12‐well plates (Falcon Ltd) at a density of 40,000 cells per well and cultured for 18 h. Media control (11.1 mM glucose), GLP‐1 (10^−8 and 10^−6 M), and a cytokine cocktail mix (IL‐1β [100 U/mL], IFNγ [20 U/mL], TNFα [200 U/mL], Sigma Aldrich, UK) were employed as controls, as appropriate. Cells were then rinsed with PBS and fixed using 4% paraformaldehyde. After antigen retrieval with sodium citrate buffer at 95°C for 20 min, blocking was performed using 2% bovine serum albumin (BSA) for 45 min. For proliferation studies, the slips were then incubated at 37°C with rabbit anti‐Ki‐67 primary antibody (Abcam, ab15580), and subsequently with Alexa Fluor® 488 secondary antibody. Coverslips were mounted onto polylysine‐coated microscope slides using a 50:50 glycerol:PBS solution and stored at 4°C until required for analysis. To assess the ability of PP peptides to protect against cytokine‐induced apoptosis, cells were seeded, washed, and fixed as above, with the exception that the media was supplemented with the cytokine mix. The slips were then incubated at 37°C with TUNEL reaction mix for 60 min (Roche Diagnostics, Germany), and mounted onto microscope slides. To assess receptor specificity, co‐incubation of PP peptides with the well characterized NPY4R antagonist, (S)‐VU0637120,[24] at 10^−5 M was employed for beta‐cell proliferation experiments, conducted as detailed above. All slides were viewed using a fluorescent microscope (Olympus System Microscope, model BX51; Southend‐on‐Sea, UK) and photographed by DP70 camera adapter system. Proliferation/TUNEL positive frequency was determined using the cell‐counter function on ImageJ Software and expressed as % of total cells analyzed.

In a further data set the test system is C57BL/6 mice. Briefly: Glucose tolerance in mice. As to conditions: peptide 25 nmol/kg i.p. conjointly with glucose 18 mmol/kg, overnight fasted mice; n = 6. The format is in vivo. As to the method:
Acute in vivo studies were conducted in groups (n = 6) of 4‐month‐old male C57BL/6 mice (Envigo, Huntington, UK). All mice were maintained on standard rodent chow (10% fat, 30% protein, and 60% carbohydrate; Trouw Nutrition, Northwich, UK), and drinking water provided ad libitum. Mice were housed individually and kept in a temperature‐controlled environment (22 ± 2°C), with a 12‐h light/dark cycle. Experiments were carried out in accordance with the UK Animal Scientific Procedures Act 1986 as well as being approved by Ulster University Animal Ethics Review Committee (AWERB) committee and protected by the UK Home Office Animal project license number PPL2902, approved on April 26, 2021. Acute effects of test peptides on food intake were tested in overnight (16 h) fasted mice. Briefly, fasted mice were administered an intraperitoneal (i.p.) injection of saline vehicle (0.9% (w/v) NaCl) alone or in combination with test peptides (each at 25, 75, or 200 nmol/kg bw) and cumulative food intake measured at regular intervals, to assess the pharmacodynamic profile of the test peptides. For food intake studies, mice were provided with preweighed rodent maintenance diet in their food hopper at t = 0 min, which was then re‐weighed at each timepoint with all due care taken to account for any wastage or crumbling of the food pellets. In this regard, the investigator was present at all times during the 180‐min test period to ensure accuracy and consistency in all measurements. Furthermore, effects of PP or related peptides (25 nmol/kg bw) on glucose homeostasis and insulin secretion were evaluated in overnight fasted mice following i.p. injection of glucose alone (18 mmol/kg bw) or in combination with PP peptides (each at 25 nmol/kg bw). […] Blood glucose was measured immediately using a hand‐held Ascencia Contour blood glucose meter (Bayer Healthcare, Newbury, Berkshire, UK). […]

SMILES strings stand for the structures.

T1 sequence (P27487 whole entry): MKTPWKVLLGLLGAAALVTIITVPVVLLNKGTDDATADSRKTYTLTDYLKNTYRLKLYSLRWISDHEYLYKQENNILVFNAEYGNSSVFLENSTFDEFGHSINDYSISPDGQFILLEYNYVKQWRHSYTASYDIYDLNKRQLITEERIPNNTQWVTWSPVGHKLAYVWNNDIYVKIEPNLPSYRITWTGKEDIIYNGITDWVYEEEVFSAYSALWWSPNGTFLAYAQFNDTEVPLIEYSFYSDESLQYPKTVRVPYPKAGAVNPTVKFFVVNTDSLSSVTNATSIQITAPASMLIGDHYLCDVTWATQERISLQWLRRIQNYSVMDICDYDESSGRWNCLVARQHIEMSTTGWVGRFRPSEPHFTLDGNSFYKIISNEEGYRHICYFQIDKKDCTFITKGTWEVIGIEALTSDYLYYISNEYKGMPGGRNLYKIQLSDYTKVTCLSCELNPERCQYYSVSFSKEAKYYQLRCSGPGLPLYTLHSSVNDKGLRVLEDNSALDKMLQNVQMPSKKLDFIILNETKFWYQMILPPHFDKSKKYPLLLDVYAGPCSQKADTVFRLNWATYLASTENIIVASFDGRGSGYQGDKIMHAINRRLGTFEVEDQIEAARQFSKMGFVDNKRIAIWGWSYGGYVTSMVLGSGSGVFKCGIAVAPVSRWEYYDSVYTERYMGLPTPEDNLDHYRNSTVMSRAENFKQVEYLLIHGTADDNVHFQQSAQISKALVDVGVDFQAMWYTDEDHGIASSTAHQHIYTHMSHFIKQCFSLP

For `CC[C@H](C)[C@H](NC(=O)[C@H](Cc1ccc(O)cc1)NC(=O)[C@H](CCCNC(=N)N)NC(=O)[C@H](CCCNC(=N)N)NC(=O)[C@H](CC(C)C)NC(=O)[C@H](CC(=O)O)NC(=O)[C@H](C)NC(=O)[C@H](C)NC(=O)[C@H](Cc1ccc(O)cc1)NC(=O)[C@H](CCC(N)=O)NC(=O)[C@H](C)NC(=O)[C@H](CCSC)NC(=O)[C@H](CCC(N)=O)NC(=O)[C@H](CCC(=O)O)NC(=O)[C@@H]1CCCN1C(=O)[C@@H](NC(=O)[C@H](C)NC(=O)[C@H](CC(N)=O)NC(=O)[C@H](CC(=O)O)NC(=O)CNC(=O)[C@@H]1CCCN1C(=O)[C@H](Cc1ccc(O)cc1)NC(=O)[C@@H](NC(=O)[C@@H]1CCCN1C(=O)[C@H](CCC(=O)O)NC(=O)[C@H](CC(C)C)NC(=O)[C@@H]1CCCN1C(=O)[C@H](C)N)C(C)C)[C@@H](C)O)C(=O)N[C@@H](CC(N)=O)C(=O)N[C@@H](CCSC)C(=O)N[C@@H](CC(C)C)C(=O)N[C@H](C(=O)N[C@@H](CCCNC(=N)N)C(=O)N1CCC[C@H]1C(=O)N[C@@H](CCCNC(=N)N)C(=O)N[C@@H](Cc1ccc(O)cc1)C(N)=O)[C@@H](C)O` [PP, Pancreatic polypeptide], the “DPP‐4 mediated degradation, outcome in words” value in data set [1] was “N‐terminal di‐peptide cleavage to yield PP(3–36)”. For the same compound, the “insulin secretion at 16.7 mM glucose” value with BRIN‐BD11 beta‐cells [2] (peptide 10^−6 M) is reported as “slight inhibitory effect”; with BRIN‐BD11 beta‐cells [2] (peptides 10^−12 to 10^−7 M), “no discernible impact”. The “BRIN‐BD11 cell proliferation” value with BRIN‐BD11 beta‐cells [3] is reported as “significantly (p < 0.001) enhanced”. In addition, the “glucose homeostasis (blood glucose)” value in the data set with C57BL/6 mice was “Neither native PP, nor related PP analogs, exerted any effect”.
